Measurements reported in patent US9914735B2, “Heteroaryl Syk inhibitors” (Boehringer Ingelheim International GmbH, priority 2014, dated 2018).
Where two headings read alike, the source gives them in different places.

How the values were obtained:
[1] = target: Recombinant human Syk (amino acids 342-635), GST-Syk kinase fusion protein (Homo sapiens (Human), UniProt P43405); test: Syk kinase test (Kinase Glo luminescence); assay type: biochemical
Experimental: The output file of the reader is a csv file that contains the well number and measured relative light units (RLU). For data evaluation and calculation, the measurement of the negative control was set as 100% ctrl and the measurement of the positive control was set as 0% ctrl. Based on this values the % value for the measurement of each substance concentration was calculated using an Assay Explorer software (Accelrys). Normally, the % ctrl values calculated are between 0% and 100% values but may also occur outside these limits in individual cases based on variability or compound characteristics. The IC50 values were calculated from the % ctrl values using Assay Explorer software. Calculation:[y=(a−d)/(1+(x/c)^b)+d] a=low value, d=high value; x=conc M; c=IC50 M; b=hill; y=% ctrl.

[2] = target: Recombinant human Aurora B (amino acids 1-344) (Homo sapiens (Human), UniProt Q96GD4); test: Aurora B kinase test (ADP Glo luminescence); assay type: biochemical
Chain of Recombinant human Aurora B (amino acids 1-344) (Q96GD4 whole entry, the tested form may be a part): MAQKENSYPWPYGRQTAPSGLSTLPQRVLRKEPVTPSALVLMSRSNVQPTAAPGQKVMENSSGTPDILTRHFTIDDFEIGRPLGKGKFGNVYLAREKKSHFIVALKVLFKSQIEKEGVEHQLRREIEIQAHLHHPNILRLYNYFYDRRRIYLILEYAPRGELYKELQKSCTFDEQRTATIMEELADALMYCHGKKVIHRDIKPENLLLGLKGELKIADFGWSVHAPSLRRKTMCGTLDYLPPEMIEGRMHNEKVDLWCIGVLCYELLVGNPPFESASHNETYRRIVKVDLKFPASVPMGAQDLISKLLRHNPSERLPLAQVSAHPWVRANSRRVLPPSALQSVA

FLT3 = FLT3 (Homo sapiens (Human), UniProt P36888); test: FLT3 kinase test (Z'-LYTE); assay type: biochemical
Chain of FLT3 (P36888 27-993): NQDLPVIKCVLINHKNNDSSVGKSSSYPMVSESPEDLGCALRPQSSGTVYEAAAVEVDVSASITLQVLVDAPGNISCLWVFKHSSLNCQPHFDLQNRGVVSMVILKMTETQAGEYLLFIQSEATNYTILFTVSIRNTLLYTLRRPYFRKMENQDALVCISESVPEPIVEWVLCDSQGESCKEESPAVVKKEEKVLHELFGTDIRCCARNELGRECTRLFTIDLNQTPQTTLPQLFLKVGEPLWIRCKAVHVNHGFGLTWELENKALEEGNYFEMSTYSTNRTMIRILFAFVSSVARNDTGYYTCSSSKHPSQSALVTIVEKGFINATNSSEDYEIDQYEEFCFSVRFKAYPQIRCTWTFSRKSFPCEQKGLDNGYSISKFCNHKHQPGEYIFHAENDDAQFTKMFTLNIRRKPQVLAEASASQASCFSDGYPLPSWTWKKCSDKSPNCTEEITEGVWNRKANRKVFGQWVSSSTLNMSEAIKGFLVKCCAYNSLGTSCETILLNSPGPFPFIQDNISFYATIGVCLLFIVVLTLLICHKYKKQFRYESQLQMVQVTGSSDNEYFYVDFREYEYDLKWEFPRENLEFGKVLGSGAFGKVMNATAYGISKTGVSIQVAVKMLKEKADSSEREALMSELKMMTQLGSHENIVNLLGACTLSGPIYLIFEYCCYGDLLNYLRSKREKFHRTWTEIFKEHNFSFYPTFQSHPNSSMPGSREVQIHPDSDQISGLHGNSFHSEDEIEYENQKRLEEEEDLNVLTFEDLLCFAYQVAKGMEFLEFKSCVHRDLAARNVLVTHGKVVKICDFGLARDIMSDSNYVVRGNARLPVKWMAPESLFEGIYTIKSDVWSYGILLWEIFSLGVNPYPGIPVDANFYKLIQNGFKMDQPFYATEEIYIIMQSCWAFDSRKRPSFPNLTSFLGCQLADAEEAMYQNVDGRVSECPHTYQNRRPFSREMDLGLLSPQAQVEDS
Procedure, shortened: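 Z'-LYTE FRET format; kinase reaction started with ATP, run 1 h at room temperature, then 1 h development before stop reagent. Controls without compound, without kinase, and phosphopeptide as 100% phosphorylation reference; values reported in M.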

Human GSK3beta = Human GSK3beta (Homo sapiens (Human), UniProt P49841); test: GSK 3beta kinase test (Z'-LYTE); assay type: biochemical; conditions: read-out: IC50 in μM (GSK3beta-Inhibition)
Chain of Human GSK3beta (P49841 whole entry): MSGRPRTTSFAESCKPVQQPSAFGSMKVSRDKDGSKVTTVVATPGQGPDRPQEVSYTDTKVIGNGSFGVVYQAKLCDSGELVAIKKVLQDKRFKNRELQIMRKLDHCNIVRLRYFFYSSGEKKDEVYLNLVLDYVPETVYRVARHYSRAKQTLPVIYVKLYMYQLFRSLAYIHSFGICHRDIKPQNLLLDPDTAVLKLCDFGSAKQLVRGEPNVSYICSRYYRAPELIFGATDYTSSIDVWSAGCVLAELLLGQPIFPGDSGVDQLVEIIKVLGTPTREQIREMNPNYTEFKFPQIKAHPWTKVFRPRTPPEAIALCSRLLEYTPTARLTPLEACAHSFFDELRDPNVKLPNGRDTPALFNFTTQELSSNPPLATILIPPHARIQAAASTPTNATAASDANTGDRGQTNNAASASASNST
Experimental: Human GSK3beta (expressed and prified from SF21 cells) is obtained from the University Dundee/Scotland (Dr. James Hastie—Dept. of Biochemistry) in 50 mM Tris (pH7.5); 150 mM NaCl; 0.1 mM EGTA, 270 mM Succrose, 0.1% β-mercaptoethanol, 1 mM benzamidine, 0.2 mM PMSF; sequence see below). The enzyme is diluted to 3.56 μM (168 μg/ml) in enzyme dilution buffer and 6 μl aliquots are stored at −80° C.
The activity of GSK3 kinase protein is measured using the Z′-LYTETM assay technology from Invitrogen (# PV3324).
The assay is performed in 384 black plates from Corning (#3676) in a final volume of 10 μl by adding 5 μl of kinase peptide mix and 2.5 μl of compound dilution. The reaction is started by addition of 2.5 μl of the 4×ATP solution.
Positive controls are reaction mixtures containing no test compound; negative controls (blanks) are reaction mixtures containing no ATP. As a further control, the phosphopeptide solution is added to wells without kinase and without ATP (=100% phosphorylation control).
The non inhibited kinase reaction will result in a phosphorylation corresponding to 20%-30% of the phosphorylation control.
The reaction is performed 1 h at room temperature. After 1h 5 μl of the development solution is added. After a further incubation for 1 h at room temperature 5 μl of the stop reagent is added. Finally the plates are read on a Flex Station II 384 (Molecular Devices).
The output text file is evaluated in an “MS-Excel—VB-Makro” and “GraphPadPrism” (Version 5) (GraphPad Software Inc.) is used to calculate the results. Data for the inhibition of GSK3beta are reported in M. data for the inhibition of the protease are reported in % CTL.

[3] = Human liver microsomal stability test; assay type: in vitro ADME; conditions: human liver microsomes; Qh = liver blood flow
Experimental: The metabolic degradation for a specific SYK-inhibitor is performed at 37° C. with pooled human liver microsomes (human liver microsomes are commercially available as “BD UltraPool™” by Corning Life Sciences, Fogostraat 12, 1060 LJ Amsterdam, The Netherlands). The final incubation volume of 100 μl per time point contains TRIS buffer pH 7.6 at RT (0.1 M), magnesium chloride (5 mM), microsomal protein (1 mg/ml) and the test compound at a final concentration of 1 μM.
Following a short preincubation period at 37° C., the reaction is initiated by addition of beta-nicotinamide adenine dinucleotide phosphate in its reduced form (NADPH, 1 mM) and terminated by transfering an aliquot into solvent after different time points. Additionally, the NADPH-independent degradation is monitored in incubations without NADPH, terminated at the last time point.
The quenched (terminated) incubations are then pelleted by centrifugation (10000 g, 5 min).
An aliquot of the supernatant is assayed by LC-MS/MS for the remaining amount of parent compound. The half-life (t1/2 INVITRO) is determined by the slope of the semilogarithmic plot of the concentration-time profile.
The intrinsic clearance (CL_[…]) is calculated by considering the amount of protein in the incubation: CL_[…][μl/min/mg protein]=(Ln 2/(t1/2 INVITRO[min]*protein content[mg/ml]))*1000
The protein content [mg/ml] was determined with the “Bicinchoninic Acid Kit” of Sigma Aldrich (commercially available).
The upscaled intrinsic Clearance (CL_UP_INT) is calculated by considering the liver weight [g liver/kg body weight] and the microsomal recovery [mg protein/g liver]: CL_UP_INT[ml/min/kg]=0.001*CL_[…]*liver weight*microsomal recovery • with microsomal recovery=45 mg protein/g liver • with liver weight=25.7 g liver/kg body weight
The percent hepatic blood flow (% Qh) is finally calculated by considering the human liver blood flow Q [ml/min/kg]: % Qh[%]=((Q*CL_UP_INT)/(Q+CL_UP_INT)/Q)*100 • with liver blood flow (Q)=20.7 ml/min/kg.

[4] = read-out: IC50 in μM (SYK-Inhibition)
[5] = read-out: IC50 in μM (AURB-Inhibition)
[6] = read-out: IC50 in μM (FLT3-Inhibition)
[7] = Table 1, read-out: SYK-inhibition IC50-value
[8] = Table 1, read-out: AURB-inhibition IC50-value
[9] = Table 1, read-out: FLT3-inhibition IC50-value

Row | SMILES | IC50 [1, 4] [µM] | IC50 [2, 5] [µM] | IC50 (FLT3; [6]) [µM] | IC50 (Human GSK3beta) [µM] | microsomal stability Cl [% Qh] [3] [% Qh] | IC50 [1, 7] [µM] | IC50 [2, 8] [µM] | IC50 (FLT3; [9]) [µM]
1 | COc1cc(-c2cc3ncccc3c(O[C@H](C)[C@H]3CNC(=O)C3)n2)cc(OC)c1OC [35 of WO 2011/092128] | 0.001 | 5.21 | 1.18 | > 10 | 62 | – | – | –
2 | Cc1nc2cc(-c3cc(O[C@H](C)[C@H]4CNC(=O)C4)c4cccnc4c3)ccc2[nH]1 [109 of WO 2013/014060] | 0.001 | 0.26 | 0.33 | > 10 | 41 | – | – | –
3 | COc1cc(-c2cc3ncccc3c(O[C@H](C)[C@H]3CNC(=O)C3)n2)ccc1OC(F)(F)F [4 of WO 2011/092128] | 0.003 | 1.85 | 0.633 | > 10 | 33 | – | – | –
4 | COc1ccc(-c2cc3nn(C)cc3c(O[C@H](C)[C@H]3CNC(=O)C3)n2)cn1 [Example 59, (4R)-4-[(1R)-1-[6-(6-methoxy-3-pyridyl)-2-methyl-pyrazolo-[4,3-c]pyridin-4-yl]oxyethyl]-pyrrolidin-2-one] | 0.144 | > 50 | 46.2 | > 10 | <23 | 0.144 | > 50 | 46.2
5 | COc1cc(-c2cc(O[C@H](C)[C@H]3CNC(=O)C3)c3cccnc3c2)ccc1C(F)(F)F [102 of WO 2013/014060] | 0.013 | 2.63 | 2.27 | > 10 | 54 | – | – | –
6 | CC(C)Oc1ccc(-c2cc(O[C@H](C)[C@H]3CNC(=O)C3)c3cn(C)nc3c2)cn1 [Example 27, (4R)-4-[(1R)-1-[6-(6-isopropoxy-3-pyridyl)-2-methyl-indazol-4-yl]oxyethyl]pyrrolidin-2-one] | 0.138 | > 50 | 26.6 | > 10 | <23 | 0.138 | > 50 | 26.6
7 | C[C@@H](Oc1nc(-c2ccc3cnn(C)c3c2)cc2nn(C)cc12)[C@H]1CNC(=O)C1 [Example 72, (4R)-4-[(1R)-1-[2-methyl-6-(1-methylindazol-6-yl)pyrazolo[4,3-c]pyridin-4-yl]oxyethyl]pyrrolidin-2-one] | 0.0526 | > 50 | 19.6 | 1.45 | <23 | 0.0526 | > 50 | 19.6
8 | COc1cc(-c2cc3nn(C)cc3c(O[C@H](C)[C@H]3CNC(=O)C3)n2)cc(OC)c1OC [Example 52, (4R)-4-[(1R)-1-[2-methyl-6-(3,4,5-trimethoxyphenyl)-pyrazolo[4,3-c]pyridin-4-yl]oxyethyl]pyrrolidin-2-one] | 0.0413 | > 50 | > 50 | > 10 | <23 | 0.0413 | > 50 | > 50
9 | C[C@@H](Oc1nc(-c2ccc(C(F)F)nc2)cc2nn(C)cc12)[C@H]1CNC(=O)C1 [Example 51, (4R)-4-[(1R)-1-[6-[6-(difluoromethyl)-3-pyridyl]-2-methyl-pyrazolo[4,3-c]pyridin-4-yl]oxyethyl]pyrrolidin-2-one] | 0.366 | 49.8 | 20.9 | > 10 | <23 | 0.366 | 49.8 | 20.9
10 | C[C@@H](Oc1cc(-c2ccc(C3CCN(C)CC3)cc2)cc2nn(C)cc12)[C@H]1CNC(=O)C1 [Example 42, (4R)-4-[(1R)-1-[2-methyl-6-[4-(1-methyl-4-piperidyl)-phenyl]indazol-4-yl]oxyethyl]-pyrrolidin-2-one] | 0.0167 | > 50 | 0.55 | > 10 | <23 | 0.0167 | > 50 | 0.55
11 | Cc1nc2cc(-c3cc(O[C@H](C)[C@H]4CNC(=O)C4)c4cccnc4c3)ccc2n1C [105 of WO 2013/014060] | 0.001 | 0.479 | 0.309 | > 10 | 64 | – | – | –
12 | C[C@@H](Oc1cc(-c2ccccn2)cc2ncccc12)[C@H]1CNC(=O)C1 [6 of WO 2013/014060] | 0.004 | 1.03 | 0.64 | > 1 | 24 | – | – | –
13 | C[C@@H](Oc1nc(-c2ccc(C(F)(F)F)nc2)cc2nn(C)cc12)[C@H]1CNC(=O)C1 [Example 61, (4R)-4-[(1R)-1-[2-methyl-6-[6-(trifluoromethyl)-3-pyridyl]pyrazolo[4,3-c]pyridin-4-yl]oxyethyl]pyrrolidin-2-one] | 0.475 | > 50 | 48.1 | > 10 | <23 | 0.475 | > 50 | 48.1
14 | Cc1cn2cc(-c3cc(O[C@H](C)[C@H]4CNC(=O)C4)c4cccnc4c3)ccc2n1 [61 of WO 2013/014060] | – | 0.25 | 0.411 | > 10 | <23 | – | – | –
